Experimental findings from US11312705B2, “Heteroaryl[4,3-C]pyrimidine-5-amine derivative, preparation method therefor, and medical uses thereof” (Jiangsu Hengrui Medicine Co., Ltd., priority 2017, dated 2022) are described below.

Type in all cases: cell-based
The target in test [1] is adenosine A2b receptor (A2bR) (Homo sapiens (Human), UniProt P29275). Put plainly: Inhibition of adenosine A2b receptor cAMP signaling pathway (HTRF cAMP, CHO-K1/A2bR cells). The conditions noted are these: Table 3; for IC50: CHO-K1/A2bR cells, ethyl carbazole 1 μM, cAMP HTRF; for IC50 ratio (A2bR/A2aR): selectivity A2bR over A2aR. The source says: (§1) Test Example 1. Determination of the inhibition activity of the compounds of the present invention on the adenosine A2a receptor (A2aR) cAMP signaling pathway, the adenosine A2b receptor (A2bR) cAMP signaling pathway, the adenosine A1 receptor (A1R) cAMP signaling pathway and the adenosine A3 receptor (A3R) cAMP signaling pathway.
adenosine A2b receptor (A2bR), sequence (P29275 whole entry): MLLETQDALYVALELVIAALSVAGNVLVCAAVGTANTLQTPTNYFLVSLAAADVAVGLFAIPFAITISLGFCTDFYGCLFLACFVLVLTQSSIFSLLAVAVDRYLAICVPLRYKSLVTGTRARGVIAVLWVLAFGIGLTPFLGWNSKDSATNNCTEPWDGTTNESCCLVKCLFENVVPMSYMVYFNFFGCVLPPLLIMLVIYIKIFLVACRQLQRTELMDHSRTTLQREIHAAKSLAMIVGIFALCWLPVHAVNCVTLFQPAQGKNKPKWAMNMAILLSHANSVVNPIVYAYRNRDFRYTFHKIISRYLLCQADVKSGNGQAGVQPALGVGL
(§2) The inhibition activity of the compounds of the present invention on the adenosine A2a receptor cAMP signaling pathway, the adenosine A2b receptor cAMP signaling pathway, the adenosine A1 receptor cAMP signaling pathway and the adenosine A3 receptor cAMP signaling pathway was determined by the following method. The experimental method is briefly described as follows:
2.4 Adenosine A2b receptor (A2bR)
CHO-K1/A2bR cells were cultured in DMEM/F12 medium containing 10% fetal bovine serum and 1 mg/ml G418. The cells were digested with the cell separation buffer during the experiment. The cells were resuspended in the balanced salt buffer containing 20 mM HEPES and 0.1% bovine serum albumin and counted, and the cell density was adjusted to 10^6 cells/ml. In the 384-well plate, each well was added with 5 μl of cell suspension, and 2.5 μl of test compound (4× concentration) formulated with the balanced salt buffer containing 20 mM HEPES, 0.1% bovine serum albumin, 54 μM rolipram and 2.7 U/ml adenosine deaminase, and the plate was incubated at room temperature for 30 minutes. Each well was then added with 2.5 μl of […] (4× concentration) (Torcis, 1691/10) formulated with the balanced salt buffer containing 20 mM HEPES, 0.1% bovine serum albumin, 54 μM rolipram and 2.7 U/ml adenosine deaminase, and the plate was incubated at room temperature for 30 minutes. The final concentrations of the compounds were: 100000, 10000, 1000, 100, 10, 1, 0.1 and 0 nM. The final concentration of […] was 1 μM. Intracellular cAMP concentration was detected with the cAMP dynamic 2 kit. cAMP-d2 and Anti-cAMP-Eu-Cryptate were diluted respectively with the cAMP lysis buffer at a ratio of 1:4. Each well was added with 5 μl of diluted cAMP-d2, followed by addition of 5 μl of diluted Anti-cAMP-Eu-Cryptate, and the plate was incubated at room temperature in the dark for 1 hour. The HTRF signal values were read by the PHERAstar multi-function microplate reader.

In test [2] the target is adenosine A3 receptor (A3R) (Homo sapiens (Human), UniProt P0DMS8). The test is described as follows: Inhibition of adenosine A3 receptor cAMP signaling pathway (HTRF cAMP, CHO-K1/A3R cells). The conditions noted are these: Table 2; for IC50: CHO-K1/A3R cells, forskolin 10 μM, 2Cl-IB-MECA 5 nM, cAMP HTRF.
adenosine A3 receptor (A3R), sequence (P0DMS8 whole entry): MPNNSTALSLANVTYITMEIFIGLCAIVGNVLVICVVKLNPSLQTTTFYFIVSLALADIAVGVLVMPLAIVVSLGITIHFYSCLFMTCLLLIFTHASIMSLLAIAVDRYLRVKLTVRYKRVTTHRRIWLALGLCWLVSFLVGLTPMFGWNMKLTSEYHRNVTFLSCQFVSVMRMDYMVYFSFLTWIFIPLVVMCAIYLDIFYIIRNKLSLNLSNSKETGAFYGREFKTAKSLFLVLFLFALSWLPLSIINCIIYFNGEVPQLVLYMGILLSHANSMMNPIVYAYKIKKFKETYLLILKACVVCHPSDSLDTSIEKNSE
From the text: as §1, §2
2.3 Adenosine A3 receptor
(§3) CHO-K1/A3R cells were cultured in DMEM/F12 medium containing 10% fetal bovine serum and 10 μg/ml puromycin. The cells were digested with the cell separation buffer during the experiment. The cells were resuspended in the balanced salt buffer containing 20 mM HEPES and 0.1% bovine serum albumin and counted, and the cell density was adjusted to 5×10^5 cells/ml. In the 384-well plate, each well was added with 12.5 μl of cell suspension, and 6.25 μl of test compound (4× concentration) formulated with the balanced salt buffer containing 20 mM HEPES, 0.1% bovine serum albumin, 54 μM rolipram and 2.7 U/ml adenosine deaminase, and the plate was incubated at room temperature for 30 minutes. Each well was then added with 6.25 μl of forskolin and 2Cl-IB-MECA (4× concentration) formulated with the balanced salt buffer containing 20 mM HEPES, 0.1% bovine serum albumin, 54 μM rolipram and 2.7 U/ml adenosine deaminase, and the plate was incubated at room temperature for 30 minutes. The final concentrations of the compounds were: 100000, 10000, 1000, 100, 10, 1, 0.1 and 0 nM. The final concentration of forskolin was 10 μM. The final concentration of 2Cl-IB-MECA was 5 nM. Intracellular cAMP concentration was detected with the cAMP dynamic 2 kit. cAMP-d2 and Anti-cAMP-Eu-Cryptate were diluted respectively with the cAMP lysis buffer at a ratio of 1:4. Each well was added with 12.5 μl of diluted cAMP-d2, followed by addition of 12.5 μl of diluted Anti-cAMP-Eu-Cryptate, and the plate was incubated at room temperature in the dark for 1 hour. The HTRF signal values were read by the PHERAstar multi-function microplate reader.

The target in test [3] is adenosine A1 receptor (A1R) (Homo sapiens (Human), UniProt P30542). Put plainly: Inhibition of adenosine A1 receptor cAMP signaling pathway (HTRF cAMP, CHO-K1/A1R cells). The conditions noted are these: Table 2; for IC50: CHO-K1/A1R cells, forskolin 10 μM, CPA 10 nM, cAMP HTRF; for IC50 ratio (A1R/A2aR): selectivity A1R over A2aR.
adenosine A1 receptor (A1R), sequence (P30542 whole entry): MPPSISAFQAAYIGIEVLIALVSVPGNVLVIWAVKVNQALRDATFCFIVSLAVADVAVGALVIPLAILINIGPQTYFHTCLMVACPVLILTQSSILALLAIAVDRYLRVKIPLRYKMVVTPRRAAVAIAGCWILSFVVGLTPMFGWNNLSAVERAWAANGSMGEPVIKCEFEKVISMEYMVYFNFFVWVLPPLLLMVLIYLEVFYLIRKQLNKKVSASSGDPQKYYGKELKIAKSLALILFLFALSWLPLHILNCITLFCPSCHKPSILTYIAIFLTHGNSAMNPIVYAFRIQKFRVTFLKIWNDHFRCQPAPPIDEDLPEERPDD
From the text: as §1, §2
2.2 Adenosine A1 receptor
as §3, with “CHO-K1/A1R cells were” for “CHO-K1/A3R cells were”, “serum and 1 mg/ml G418. The cells” for “serum and 10 μg/ml puromycin. The cells”, “cells were then resuspended in” for “cells were resuspended in”, “forskolin and N6-cyclopentyladenosine (4× concentration)” for “forskolin and 2Cl-IB-MECA (4× concentration)”, “concentration of CPA was 10” for “concentration of 2Cl-IB-MECA was 5”, “CPA was 10 nM. Intracellular” for “2Cl-IB-MECA was 5 nM. Intracellular”

Test [4] has as its target adenosine A2a receptor (A2aR) (Homo sapiens (Human), UniProt P29274). Put plainly: Inhibition of adenosine A2a receptor cAMP signaling pathway (HTRF cAMP, CHO-K1/A2aR cells).
From the text: as §1, §2
2.1 Adenosine A2a Receptor
CHO-K1/A2aR cells were cultured in DMEM/F12 medium containing 10% fetal bovine serum and 800 μg/ml bleomycin. The cells were digested with the cell separation buffer during the experiment. The cells were resuspended in the balanced salt buffer containing 20 mM HEPES and 0.1% bovine serum albumin and counted, and the cell density was adjusted to 10^6 cells/ml. In the 384-well plate, each well was added with 5 μl of cell suspension, and 2.5 μl of test compound (4× concentration) formulated with the balanced salt buffer containing 20 mM HEPES, 0.1% bovine serum albumin, 54 μM rolipram and 2.7 U/ml adenosine deaminase, and the plate was incubated at room temperature for 30 minutes. Each well was then added with 2.5 μl of […] (4× concentration) formulated with the balanced salt buffer containing 20 mM HEPES, 0.1% bovine serum albumin, 54 μM rolipram and 2.7 U/ml adenosine deaminase, and the plate was incubated at room temperature for 30 minutes. The final concentrations of the compounds were: 10000, 2000, 400, 80, 16, 3.2, 0.64, 0.128, 0.0256, 0.00512, and 0.001024 nM. The final concentration of […] was 20 nM. Intracellular cAMP concentration was detected with the cAMP dynamic 2 kit. cAMP-d2 and Anti-cAMP-Eu-Cryptate were diluted respectively with the cAMP lysis buffer at a ratio of 1:4. Each well was added with 5 μl of diluted cAMP-d2, followed by addition of 5 μl of diluted Anti-cAMP-Eu-Cryptate, and the plate was incubated at room temperature in the dark for 1 hour. The HTRF signal values were read by the PHERAstar multi-function microplate reader.

adenosine A2a receptor (A2aR), sequence (P29274 whole entry): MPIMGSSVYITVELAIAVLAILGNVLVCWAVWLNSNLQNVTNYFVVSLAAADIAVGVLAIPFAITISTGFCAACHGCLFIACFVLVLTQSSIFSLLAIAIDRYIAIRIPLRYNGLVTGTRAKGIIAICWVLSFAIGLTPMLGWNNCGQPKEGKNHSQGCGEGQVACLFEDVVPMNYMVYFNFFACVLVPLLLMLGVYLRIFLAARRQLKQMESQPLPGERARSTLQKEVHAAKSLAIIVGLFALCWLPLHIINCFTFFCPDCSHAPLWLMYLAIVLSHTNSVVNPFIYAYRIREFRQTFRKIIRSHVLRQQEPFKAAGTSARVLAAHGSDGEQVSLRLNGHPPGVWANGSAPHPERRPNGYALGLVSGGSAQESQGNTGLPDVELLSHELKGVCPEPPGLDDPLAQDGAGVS

As to `Cc1cc(-c2c(-c3ccc(Cl)cc3F)nc(N)n3cnnc23)cc(C(F)F)n1` [Example 59, 7-(4-Chloro-2-fluorophenyl)-8-(2-(difluoromethyl)-6-methylpyridin-4-yl)-[1,2,4]triazolo[4,3-c]pyrimidin-5-amine], the IC50 in test [1] is 884 nM; in test [2], greater than 10000 nM; in test [3], 1010 nM; in test [4] (Table 1, ethyl carbazole 20 nM) it was 3.05 nM; in test [4] (Table 2, ethyl carbazole 20 nM), 3.05 nM; in test [4] (Table 3, ethyl carbazole 20 nM), 3.05 nM. The “IC50 ratio (A2bR/A2aR)” value in test [1] was 290. Besides, the “IC50 ratio (A3R/A2aR)” value in test [2] is >10^3. Moreover, the “IC50 ratio (A1R/A2aR)” value in test [3] is on record as 330.
Regarding `Cc1cc(-c2c(-c3ccccc3F)nc(N)n3cnnc23)cc(CF)n1` [Example 57, 8-(2-(Fluoromethyl)-6-methylpyridin-4-yl)-7-(2-fluorophenyl)-[1,2,4]triazolo[4,3-c]pyrimidin-5-amine], the half-maximal inhibitory concentration (IC50) in test [1] is 209 nM; in test [2], greater than 10000 nM; in test [3], 302 nM; in test [4] (Table 1, ethyl carbazole 20 nM) it was 2.59 nM; in test [4] (Table 2, ethyl carbazole 20 nM), 2.59 nM; in test [4] (Table 3, ethyl carbazole 20 nM), 2.59 nM. For the same compound, the “IC50 ratio (A2bR/A2aR)” value in test [1] came to 81. Besides, in test [2], the “IC50 ratio (A3R/A2aR)” value was >10^3. Moreover, in test [3], the “IC50 ratio (A1R/A2aR)” value is reported as 117.
As to `Cc1cc(-c2c(-c3ccc(F)cc3)nc(N)n3cnnc23)cc(CF)n1` [Example 55, 8-(2-(Fluoromethyl)-6-methylpyridin-4-yl)-7-(4-fluorophenyl)-[1,2,4]triazolo[4,3-c]pyrimidin-5-amine], the half-inhibitory concentration (IC50) in test [1] was 78.2 nM; in test [2], greater than 10000 nM; in test [3], 222 nM; in test [4] (Table 1, ethyl carbazole 20 nM), 1.04 nM; in test [4] (Table 2, ethyl carbazole 20 nM), 1.04 nM; in test [4] (Table 3, ethyl carbazole 20 nM), 1.04 nM. Further, the “IC50 ratio (A2bR/A2aR)” value in test [1] is 75. In addition, the “IC50 ratio (A3R/A2aR)” value in test [2] is reported as >10^3. In addition, the “IC50 ratio (A1R/A2aR)” value in test [3] amounted to 214.
With `Cc1cc(-c2c(-c3ccccc3F)nc(N)n3cnnc23)cc(C)n1` [Example 19, 8-(2,6-Dimethylpyridin-4-yl)-7-(2-fluorophenyl)-[1,2,4]triazolo[4,3-c]pyrimidin-5-amine], the half-maximal inhibitory concentration (IC50) was 85.4 nM in test [1]; greater than 10000 nM in test [2]; 173 nM in test [3]; 0.96 nM in test [4] (Table 1, ethyl carbazole 20 nM); 0.96 nM in test [4] (Table 2, ethyl carbazole 20 nM); 0.96 nM in test [4] (Table 3, ethyl carbazole 20 nM). In test [1], the “IC50 ratio (A2bR/A2aR)” value is on record as 89. Also, in test [2], the “IC50 ratio (A3R/A2aR)” value is given as >10^4. In test [3], the “IC50 ratio (A1R/A2aR)” value was found to be 180.
Consider `Cc1cc(-c2c(-c3ccccc3F)nc(N)n3cnnc23)cc(C(F)F)n1` [Example 56, 8-(2-(Difluoromethyl)-6-methylpyridin-4-yl)-7-(2-fluorophenyl)-[1,2,4]triazolo[4,3-c]pyrimidin-5-amine], for which the concentration for half-maximal inhibition (IC50) is 112 nM in test [1]; greater than 10000 nM in test [2]; 248 nM in test [3]; 1.68 nM in test [4] (Table 1, ethyl carbazole 20 nM); 1.68 nM in test [4] (Table 2, ethyl carbazole 20 nM); 1.68 nM in test [4] (Table 3, ethyl carbazole 20 nM). The “IC50 ratio (A2bR/A2aR)” value in test [1] is 67. Moreover, the “IC50 ratio (A3R/A2aR)” value in test [2] is reported as >10^3. Besides, in test [3], the “IC50 ratio (A1R/A2aR)” value was found to be 148.
For `Cc1cc(-c2c(-c3ccccc3F)nc(N)n3cnnc23)cc(Cl)n1` [Example 27, 8-(2-Chloro-6-methylpyridin-4-yl)-7-(2-fluorophenyl)-[1,2,4]triazolo[4,3-c]pyrimidin-5-amine], the “IC50 ratio (A3R/A2aR)” value in test [2] was >2 × 10^4. Also, the IC50 in test [2] is greater than 10000 nM; in test [3], 71 nM; in test [4] (Table 1, ethyl carbazole 20 nM) it was 0.5 nM; in test [4] (Table 2, ethyl carbazole 20 nM), 0.5 nM. Further, in test [3], the “IC50 ratio (A1R/A2aR)” value was 142.
Take `Cc1cc(-c2c(-c3ccccc3)nc(N)n3cnnc23)cc(Cl)n1` [Example 4, 8-(2-Chloro-6-methylpyridin-4-yl)-7-phenyl-[1,2,4]triazolo[4,3-c]pyrimidin-5-amine]: the IC50 in test [1] is 82.6 nM; in test [2], greater than 10000 nM; in test [3] it was 37 nM; in test [4] (Table 1, ethyl carbazole 20 nM) it was 0.08 nM; in test [4] (Table 2, ethyl carbazole 20 nM) it was 0.08 nM; in test [4] (Table 3, ethyl carbazole 20 nM) it was 0.08 nM. Further, the “IC50 ratio (A2bR/A2aR)” value in test [1] is given as 1032. Moreover, the “IC50 ratio (A3R/A2aR)” value in test [2] was >1.3 × 10^5. Besides, the “IC50 ratio (A1R/A2aR)” value in test [3] was found to be 463.
In the case of `Cc1cc(-c2c(-c3ccccc3)nc(N)n3cnnc23)cc2cccnc12` [Example 5, 8-(8-Methylquinolin-6-yl)-7-phenyl-[1,2,4]triazolo[4,3-c]pyrimidin-5-amine], the “IC50 ratio (A3R/A2aR)” value in test [2] is 1.5 × 10^4. Moreover, the half-inhibitory concentration (IC50) is 1400 nM in test [2]; 12 nM in test [3]; 0.09 nM in test [4] (Table 1, ethyl carbazole 20 nM); 0.09 nM in test [4] (Table 2, ethyl carbazole 20 nM). Moreover, the “IC50 ratio (A1R/A2aR)” value in test [3] was found to be 133.
